Assay results as given in patent publication US12600696B2 (XENIOPRO GMBH, priority 2017, dated 2026).

Assays:
Type in all cases: cell-based
[1] = test system: HPEKp cells (human epidermal keratinocyte progenitors, pooled); assay: alamarBlue proliferation assay with HPEKp cells; conditions: 120 h, relative to DMSO basis level 1.0, read-out: weighted arithmetic mean (AVEw) of normalized fluorescence intensity, activity range
Description: (§1) The antiproliferative activities of compounds falling under formula I, formula II, formula III, formula IV and formula V were investigated on cells or cell lines originating from a disorder of the myeloid cell compartment, the neuroendocrine system, the cervix, and the mucosal epithelium, as well as from the skin epithelium. To this end, HL-60 cells, TT cells, HeLa cells, CAL-27 cells and human primary epidermal keratinocytes (HPEK) were seeded into 96-well plates suitable for fluorescence assays (CORNING #3598) at following initial cell numbers: 1000 cells per well for HL-60; 9000 cells per well for TT; 2000 cells per well for HeLa, 2000 cells per well for CAL-27, 2000 cells per well for HPEK. The cells were treated with compounds at indicated final concentrations (diluted from the 1000× stock-solutions in DMSO to a final DMSO concentration of 0.1% v/v) or with the empty carrier DMSO at 0.1% v/v as control for 5 days. At day 5 after starting the treatments the cells were subjected to the alamarBlue® Proliferation Assay (Bio-Rad Serotec GmbH, BUF012B) according to the protocol of the manufacturer. The readout was taken with a multi-well plate-reader in the fluorescence mode with applying a filter for excitation at 560 nm (band width 10 nm) and for emission at 590 nm (band width 10 nm). Resveratrol (RES) treatment was included as control for growth inhibition.
(§2) The assays were performed in duplicate or more replicates of independent single experiments each containing a six-fold replicate for every condition. For every individual plate, the measured fluorescence intensity values of the conditions with compound treatment were normalized against the corresponding equally weighted arithmetic mean of the fluorescence intensity values of the six DMSO treated control wells in order to obtain the relative values to a baseline level of 1.0. The statistical calculations were performed in analogy to the luciferase assay as described above. To this end, two independent outlier analyses were performed according to the methods by Peirce and Chauvenet (Ross, Journal of Engineering Technology 2003, 1-12). Outliers confirmed by at least one of the methods were excluded from the calculations but not more than one value out of six per compound within a single experiment. The weighted arithmetic mean AVEw for each compound was calculated from the normalized values over all independent replicates of the single experiments comprising the six replicates each. The corresponding standard deviation for the weighted arithmetic mean was calculated according to the method described by Bronstein et al. (Bronstein, Semendjajew, Musiol, Mühlig, Taschenbuch der Mathematik, 5th edition 2001 (German), publisher: Verlag Harri Deutsch, Frankfurt am Main and Thun) and was combined with the Gauß′ error propagation associated with the performed calculation for the normalization. The resulting standard deviation is herein referred to as “combined standard deviation”.
HPEKp cells were cultivated according to the protocol of the provider in CnT-Prime epithelial culture medium (CELLnTEC, #CnT-PR, a fully defined, low calcium formulation, completely free of animal or human-derived components) without addition of further components.
(§3) A compound is considered as a growth inhibitor of HPEKp cells, if—at a reference concentration of 10 μM—the weighted arithmetic mean of the normalized fluorescence intensity values after addition of the corresponding combined standard deviation amounts to 0.9 or lower, in particular to 0.8 or lower, 0.7 or lower, 0.6 or lower, 0.4 or lower, and 0.2 or lower, relative to the overall basis level of 1.0. The overall basis level was calculated as the weighted arithmetic mean of all normalized values from the DMSO control measurements in analogy to the calculations performed for the test-compounds. The corresponding combined standard deviation for the DMSO values amounts to less than 1·10^−2.

[2] = test system: Notch signaling (hNotch1ΔE, human Notch1 receptor) in HeLa cells; assay: Notch reporter assay (luciferase luminescence readout in transfected HeLa cells); conditions: Homo sapiens, 20 hours, relative to DMSO baseline level of 1.0, read-out: AVEw, weighted arithmetic mean of double-normalized Notch-reporter luciferase luminescence values (Activity Range)
Method in brief: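 HeLa cells were transiently transfected for 24 h with membrane-tethered constitutively active hNotch1ΔE, a CSL-promoter Firefly luciferase reporter and constitutive SV40-Renilla luciferase. Compounds were then applied at 10 μM (0.1% DMSO) for 20 h. Firefly/Renilla dual-luciferase ratios were normalized to DMSO control (baseline 1.0), outliers were excluded, and replicate values were averaged across ≥3 independent experiments.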

[3] = test system: HL-60 cells (human acute myeloid leukemia cells); assay: alamarBlue proliferation assay with HL-60 cells; conditions: 120 h, 5 days, relative to DMSO baseline level of 1.0, read-out: AVEw, weighted arithmetic mean of normalized fluorescence intensity values (Activity Range), HL-60 proliferation
Method in brief: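 HL-60 cells (1000/well, RPMI 1640 + 10% FBS) exposed to compound in 0.1% DMSO for 5 days, then alamarBlue fluorescence read (ex 560/em 590 nm). Signals normalized to six DMSO wells per plate (baseline 1.0); outliers removed by Peirce/Chauvenet; weighted mean with combined SD; inhibitor criterion judged at 20 μM reference concentration.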

[4] = test system: CAL-27 cells (human tongue squamous cell carcinoma cells); assay: alamarBlue proliferation assay with CAL-27 cells; conditions: Homo sapiens, 120 h, 20 μM, 5 days, relative to DMSO baseline level of 1.0, read-out: AVEw, weighted arithmetic mean of normalized fluorescence intensity values (Activity Range), CAL-27 proliferation
Description: as §1, §2
CAL-27 cells were cultivated according to the protocol of the provider (but at 5% instead of 10% CO2) in DMEM medium (Fisherscientific, #11584456) containing 10% fetal bovine serum (Fisherscientific, #15517589).
as §3, with “of CAL-27” for “of HPEKp”, “of 20” for “of 10”

Compound	activity at 10 µM [1] [%]	fold induction at 10 µM [2]	activity at 20 µM [3] [%]	activity at 20 µM [4] [%]
COC(=O)c1ccc(Oc2ccc(C3C[C@@H]4CC[C@H]3C4)cc2)nc1 (stereo partly drawn) [Compound 112, methyl 6-(4-((1S,4R)-bicyclo[2.2.1]heptan-2-yl)phenoxy)nicotinate]	40 to 60	–	–	–
CCCc1ccc(Oc2ccc(C(N)=O)cc2)cc1 [Compound 140, 4-(4-propylphenoxy)benzamide]	80 to 90	–	–	–
CCCCCc1ccc(Oc2ccc(C(=O)NO)cc2)cc1 [Compound 168, N-hydroxy-4-(4-pentylphenoxy)benzamide]	–	1.3 to 1.4	0 to 20	0 to 20
CC(C)c1ccc(Oc2ccc(C(=O)NO)cc2)cc1 [Compound 170, N-hydroxy-4-(4-isopropylphenoxy)benzamide]	–	1.1 to 1.2	0 to 20	20 to 40
O=C(NO)c1ccc(Oc2ccc(C3C[C@@H]4CC[C@H]3C4)cc2)cc1 (stereo partly drawn) [Compound 184, 4-(4-((1S,4R)-bicyclo[2.2.1]heptan-2-yl)phenoxy)-N-hydroxybenzamide]	–	1.3 to 1.4	0 to 20	0 to 20
CCc1ccc(Oc2ccc(C(=O)NC)cc2)cc1 [Compound 190, 4-(4-ethylphenoxy)-N-methylbenzamide]	60 to 70	–	–	–
Cc1ccc(Oc2ccc(C(=O)NO)cn2)cc1 [Compound 266, N-hydroxy-6-(p-tolyloxy)nicotinamide]	–	1.4 to 1.7	0 to 20	40 to 60
CCc1ccc(Oc2ccc(C(=O)NO)cn2)cc1 [Compound 267, 6-(4-ethylphenoxy)-N-hydroxynicotinamide]	–	1.1 to 1.2	0 to 20	20 to 40
CCCc1ccc(Oc2ccc(C(=O)NO)cn2)cc1 [Compound 268, N-hydroxy-6-(4-propylphenoxy)nicotinamide]	–	1.3 to 1.4	0 to 20	0 to 20
CCCCc1ccc(Oc2ccc(C(=O)NO)cn2)cc1 [Compound 269, 6-(4-butylphenoxy)-N-hydroxynicotinamide]	–	1.4 to 1.7	0 to 20	0 to 20
O=C(NO)c1ccc(Oc2ccc(C(F)(F)F)cc2)nc1 [Compound 275, N-Hydroxy-6-(4-(trifluoromethyl)phenoxy)nicotinamide]	–	1.2 to 1.3	0 to 20	0 to 20
O=C(NO)c1ccc(Oc2ccc(C3C[C@@H]4CC[C@H]3C4)cc2)nc1 (stereo partly drawn) [Compound 286, 6-(4-((1S,4R)-bicyclo[2.2.1]heptan-2-yl)phenoxy)-N-hydroxynicotinamide]	–	1.3 to 1.4	0 to 20	0 to 20
CNC(=O)c1ccc(Oc2ccc(C3CC4CCC3CC4)cc2)nc1 (centres unmarked) [Compound 312, 6-(4-((1s,4s)-bicyclo[2.2.2]octan-2-yl)phenoxy)-N-methylnicotinamide]	70 to 80	–	–	–
CC(C)(C)c1ccc(Oc2ncc(C(=O)O)cc2F)cc1 [Compound 424, 6-(4-(tert-butyl)phenoxy)-5-fluoronicotinic acid]	70 to 80	–	–	–
O=C(NO)c1cnc(Oc2ccc(C34CC5CC(CC(C5)C3)C4)cc2)c(F)c1 [Compound 648, 6-(4-((3r,5r,7r)-adamantan-1-yl)phenoxy)-5-fluoro-N-hydroxynictinamide]	–	–	0 to 20	0 to 20
COC(=O)c1ccc(Oc2ccc(C3(C(F)(F)F)CC3)cc2Cl)nc1 [Compound 747, methyl 6-(2-chloro-4-(1-(trifluoromethyl)cyclopropyl)phenoxy)nicotinate]	80 to 90	–	–	–
CCOC(=O)c1ccc(Oc2ccc(C3(C(F)(F)C(F)(F)F)CC3)cc2)nc1 [Compound 749, Ethyl 6-(4-(1-(perfluoroethyl)cyclopropyl)phenoxy)nicotinate]	80 to 90	–	–	–
O=C(NO)c1ccc(Oc2ccc(C3(C(F)(F)F)CC3)cc2)cc1 [Compound 766, N-hydroxy-4-(4-(1-(trifluoromethyl)cyclopropyl)phenoxy)benzamide]	–	–	0 to 20	0 to 20
O=C(NO)c1ccc(Oc2ccc(C3(C(F)(F)C(F)(F)F)CC3)cc2)cc1 [Compound 767, N-hydroxy-4-(4-(1-(perfluoroethyl)cyclopropyl)phenoxy)benzamide]	–	–	0 to 20	0 to 20
O=C(NO)c1ccc(Oc2ccc(C3(C(F)(F)F)CC3)cc2Cl)cc1 [Compound 774, 4-(2-chloro-4-(1-(trifluoromethyl)cyclopropyl)phenoxy)-N-hydroxybenzamide]	–	–	0 to 20	70 to 80
O=C(NO)c1ccc(Oc2ccc(C3(C(F)(F)F)CC3)cc2)nc1 [Compound 802, N-hydroxy-6-(4-(1-(trifluoromethyl)cyclopropyl)phenoxy)nicotinamide]	–	–	0 to 20	0 to 20
O=C(NO)c1ccc(Oc2ccc(C3(C(F)(F)C(F)(F)F)CC3)cc2)nc1 [Compound 803, N-hydroxy-6-(4-(1-(perfluoroethyl)cyclopropyl)phenoxy)nicotinamide]	–	–	0 to 20	0 to 20
O=C(NO)c1cnc(Oc2ccc(C3(C(F)(F)F)CC3)cc2)c(F)c1 [Compound 804, 5-fluoro-N-hydroxy-6-(4-(1-(trifluoromethyl)cyclopropyl)phenoxy)nicotinamide]	–	–	0 to 20	0 to 20
CN(C)C(=O)c1ccc(Oc2ccc(C3(C(F)(F)F)CC3)cc2)nc1 [Compound 820, N,N-Dimethyl-6-(4-(1-(trifluoromethyl)cyclopropyl)phenoxy)-nicotinamide]	–	1.4 to 1.7	40 to 60	80 to 90
CN(C)C(=O)c1cnc(Oc2ccc(C3(C(F)(F)F)CC3)cc2)c(F)c1 [Compound 822, 5-fluoro-N,N-dimethyl-6-(4-(1-(trifluoromethyl)cyclopropyl)phenoxy)nicotinamide]	–	–	70 to 80	80 to 90
